Laboratory results published in patent US11634381B2, “RUNX2 transcription factor inhibitors and uses thereof” (University of Maryland, Baltimore, priority 2015, dated 2023).
Where a SMILES comes first, the peptide text is derived from it. The star is where a group is joined. Cbz = O=C(OCc1ccccc1)*

B1: recombinant soluble E-Cadherin: recombinant soluble E-Cadherin (rsE-Cad) (protein, UniProt P12830 155-709, looked up)
extracellular domain: DWVIPPISCPENEKGPFPKNLVQIKSNKDKEGKVFYSITGQGADTPPVGVFIIERETGWLKVTEPLDRERIATYTLFSHAVSSNGNAVEDPMEILITVTDQNDNKPEFTQEVFKGSVMEGALPGTSVMEVTATDADDDVNTYNAAIAYTILSQDPELPDKNMFTINRNTGVISVVTTGLDRESFPTYTLVVQAADLQGEGLSTTATAVITVTDTNDNPPIFNPTTYKGQVPENEANVVITTLKVTDADAPNTPAWEAVYTILNDDGGQFVVTTNPVNNDGILKTAKGLDFEAKQQYILHVAVTNVVPFEVSLTTSTATVTVDVLDVNEAPIFVPPEKRVEVSEDFGVGQEITSYTAQEPDTFMEQKITYRIWRDTANWLEINPDTGAISTRAELDREDFEHVKNSTYTALIIATDNGSPVATGTGTLLLILSDVNDNAPIPEPRTIFFCERNPKPQVINIIDADLPPNTSPFTAELTHGASANWTIQYNDPTQESIILKPKMALEVGDYKINLKLMDNQNKDQVTTLEVSVCDCEGAAGVCRKAQPVEAGLQIPA
modifications: extracellular domain

Legend:
TAZ = experiment: siRNA mediated knockdown of TAZ (Western blot); assay type: cell-based, human; conditions: MCF7 Tet.OFF cells, low or high RUNX2
Protocol: TAZ knockdown was performed in MCF7 Tet.OFF cells using Custom 23 mer desalted siRNA oligonucleotides from Sigma and a Universal Scrambled Negative Control siRNA Duplex from Origene (Catalog No. SR30004): TAZ siRNA #1: 5′-GACA […]-3′ (SEQ ID NO: 1), TAZ siRNA #2: 5′-[…] GAACAUU-3′ (SEQ ID NO: 2) and TAZ siRNA #3: 5′-[…]-3′ (SEQ ID NO: 3). Briefly, MCF7 Tet.OFF cells were grown in the absence or presence of doxycycline for 3 days and then transfected with corresponding siRNA's using Lipofectamine-2000 (Life Technologies). RIPA extracts were obtained 48 hr post transfection and total protein was analyzed by Western blot (see above) and probed for TAZ protein expression. Protein levels were normalized to actin and quantified using NIH Image-J software.

MCF7 RUNX2 Tet.OFF cells = experiment: Suspension culture tumorsphere formation; assay type: cell-based, human; conditions: TAZ siRNA, TGFβ, 12 days
Protocol: MCF7 Tet.OFF cells were grown in the presence (+Dox, RUNX2 negative) or absence (−Dox, RUNX2 positive) of doxycycline for 3 days. Cells were then scraped and counted. 60,000 cells were plated in each well of a 6-well ultra-low attachment plate (Corning; 3471) in Promocell Basal Medium (Promocell; c-22211) complete with Supplement Mix (Promocell; c-39216). Cells were then treated with or without 2 ng/mL TGFβ (R&D Systems; 240-B-002). After growth for 10-15 days, wells were photographed and tumorsphere diameters were measured from photographic images (mm). Colony diameters were calculated using the formula: (L+W)/2. Representative photographs were obtained at 4× magnification. […] For TAZ siRNA knockdown experiments, TAZ siRNA was transfected (as below) into MCF7 Tet.OFF cells and 24 hr later cells were scraped and placed into suspension as described above. Small-Interfering RNA (siRNA) pool targeting RUNX1, RUNX2, and non-targeting control were purchased from Dharmacon, and transfected into cells using RNAiMAX Reagent (Invitrogen). Western blot analysis was performed 48 hrs after transfection.

RUNX2 = RUNX2 (Homo sapiens, UniProt Q13950); experiment: Western blot of RUNX2, RUNX1, CBF-β; assay type: cell-based; design: endogenous in cells; host or cells: MDA-231, MDA-468; conditions: MDA-468 and MCF7 cells, MG132 10 μM alone, 18 hrs
Protocol: Whole cell lysates extracted in RIPA buffer (Upstate) were separated on 4-12% gradient SDS-PAGE and transferred to nitrocellulose membrane. The blots were incubated with specific antibodies for each protein overnight at 4° C. After antibody washing, the blots were reacted with their respective secondary antibody and detected with enhanced chemiluminescence reagents (Millipore) according to the supplier's protocol. Antibodies for proteins were purchased as below. RUNX1, RUNX2, CBF-β, ubiquitin and caspase-3 (Cell Signaling Technologies), S451-p-RUNX2 (Bioss Gentaur, Belgium), RUNX3 and Glut-1 (Millipore, Calif.), β-actin and RUNX2 antibody for IHC (Sigma-Aldrich), and Ki-67 for IHC (Bethyl Laboratories, Inc, TX).

Lats1/2 = Lats1/2 phosphorylation (Hippo signaling); assay type: cell-based, human; conditions: HCC1428 cells, rsE-Cad 24 hr
Protocol: In FIG. 22A HCC1428 luminal BC cells that express E-Cadherin were treated with recombinant soluble E-Cadherin (rsE-Cad) for 24 hr and total cell extracts were analyzed for phosphorylation of the Lats1/2 tumor suppressors. Phospho.Lats1/2 and total Lats1/2 levels declined with rsE-Cad treatment consistent with TAZ translocation to the nucleus, where it acts as an oncogene with RUNX2. […] MCF7 cells expressing RUNX2 (Tet.OFF) were treated with compound 1 drug for 24 hours and total cell extracts were analyzed for phosphp.Lats1/2, total Lats1/2, and RUNX2 expression.

RUNX2, sequence (Q13950 whole entry): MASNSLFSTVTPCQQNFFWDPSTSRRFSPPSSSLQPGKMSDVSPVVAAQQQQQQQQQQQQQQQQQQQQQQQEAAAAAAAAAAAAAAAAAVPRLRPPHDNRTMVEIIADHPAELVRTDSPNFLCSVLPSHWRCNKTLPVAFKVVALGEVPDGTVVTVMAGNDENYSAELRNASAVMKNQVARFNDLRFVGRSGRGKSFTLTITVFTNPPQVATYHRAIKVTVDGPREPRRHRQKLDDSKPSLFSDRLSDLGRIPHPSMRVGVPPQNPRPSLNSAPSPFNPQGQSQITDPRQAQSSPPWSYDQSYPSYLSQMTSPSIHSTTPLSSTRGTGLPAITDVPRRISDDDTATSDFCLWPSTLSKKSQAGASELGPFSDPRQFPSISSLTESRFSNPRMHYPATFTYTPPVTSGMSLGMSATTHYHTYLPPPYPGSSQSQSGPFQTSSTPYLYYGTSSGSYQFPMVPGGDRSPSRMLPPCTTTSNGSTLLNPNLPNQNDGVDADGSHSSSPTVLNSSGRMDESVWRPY

Molecule | TAZ knockdown to levels of control (scrambled siRNA) (TAZ) | tumorsphere size (MCF7 RUNX2 Tet.OFF cells; RUNX2 negative cells) | tumorsphere size (MCF7 RUNX2 Tet.OFF cells; RUNX2 positive cells) | RUNX2 protein stability (RUNX2) | phosphorylation of the Lats1/2 tumor suppressors (Lats1/2)
5′-AAGCCUAGCUCGUGGCGGAUU-3′ (listed as RNA, chemistry not given here) [TAZ siRNA #3] | 30% | no significant effect | 6.05±3.12 mm | – | –
5′-GACA UGAGAUCCAUCACUAUU-3′ (GACAUGAGAUCCAUCACUAUU; listed as RNA, chemistry not given here) [TAZ siRNA #1] | 70-80% | 4.85±2.11 mm | 4.43±1.47 mm | – | –
5′-GGACAAACACCCAU GAACAUU-3′ (GGACAAACACCCAUGAACAUU; listed as RNA, chemistry not given here) [TAZ siRNA #2] | 50-70% | 5.16±1.91 mm | 5.35±2.42 mm | – | –
CC(C)C[C@@H](C=O)NC(=O)[C@H](CC(C)C)NC(=O)[C@H](CC(C)C)NC(=O)OCc1ccccc1 [MG132, reference compound] (Cbz-Leu-Leu-Leu-aldehyde) | – | – | – | increased | –
B1 | – | – | – | – | decline in phosphorylation
